Legend:
[1] = diazepam combined with EMG biofeedback; chronic anxious patients; cited from earlier work
[2] = Evaluation of analgesics, alone or with the prototype Halo system, on a human subject with recurring headaches; assay type: in vivo; conditions: one subject
Description: The subject was a person in New York City with a history of recurring headaches. Tests were conducted in three stages between December 2016 and March 2017. In the first stage the subject used various over-the-counter analgesics at recommended dosages to manage headache symptoms (Sessions 1 and 2). Conditions were self-assessed prior to drug administration according to a standard headache scale, and then qualitatively reassessed for the extent of relief. In the second stage, the subject took an analgesic at the same time of using a prototype Halo™ system for 5 min (Session 3). In the third stage the subject used the prototype Halo™ system alone for a duration of 10 min on three occasions (Sessions 4-6).

Which “Effect on muscular tension” value [1] does the source give for `CN1C(=O)CN=C(c2ccccc2)c2cc(Cl)ccc21` [diazepam] here?
The value was “effectively reduced muscular tension”.

With `COc1ccc2cc([C@H](C)C(=O)O)ccc2c1` [naproxen] as the compound, how does the Relief ([2]; analgesic taken at the same time as using prototype Halo system for 5 min, qualitative self-assessment) read?
The Relief was “Complete”.

For `CC(=O)Oc1ccccc1C(=O)O` [aspirin], which Relief ([2]; over-the-counter analgesic alone at recommended dosage, qualitative self-assessment of headache relief) is on record?
Its Relief is “Moderate”.
